Laboratory results reported in US20240050943A1, “MULTI-VOLUME MICROCHAMBER-BASED MICROFLUIDIC PLATFORM AND USE THEREOF” (CORNELL UNIVERSITY, priority 2020, published 2024).

Tests used:
E. coli 541-15 = assay: Gold standard broth microdilution (BMD) test, OD600; assay type: cell-based; settings: E. coli 541-15, 1×10^6 CFU/mL
[1] = tested on: GFP-labeled E. coli 541-15; assay: Antibiotic susceptibility test (AST) in the EL-MVM^2 microfluidic platform, resazurin fluorescence / GFP readout; assay type: cell-based; settings: GFP-labeled E. coli 541-15, 4.5 hours of incubation; intermediate sub-GCP = 1.12-12.54 μg/mL

Gentamicin
MIC (broth microdilution, OD600 nm, 80% reduction) (E. coli 541-15): 5.00 µg/mL
Turning point of GFP-labeled bacterial growth from partially to totally inhibited [1]: intermediate concentration range
